Where “and” joins values, the source holds several entries; their conditions need not be identical. Equal values may be shown once.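 A five-concentration, 48-hour dose response in 96-well plates underlies each endpoint, interpolated linearly between surrounding concentrations. GI50: concentration for 50% inhibition of growth. TGI marks complete inhibition of growth.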
Legend:
Assay in all cases: NCI anticancer screen, dose series, 48 h
[1] = tested on: SW-620 colon
[2] = tested on: SK-OV-3 ovarian
[3] = tested on: RXF 393 renal
[4] = tested on: SF-268 CNS
[5] = tested on: SNB-75 CNS
[6] = tested on: RPMI-8226 leukemia
[7] = tested on: OVCAR-5 ovarian
[8] = tested on: NCI-H226 lung
[9] = tested on: PC-3 prostate
[10] = tested on: T-47D breast

SMILES	TGI [1]	TGI [2] [µM]	TGI [3]	TGI [4]	TGI [5]	TGI [6] [µM]	TGI [7]	TGI [8]	TGI [9] [µM]	TGI [10] [µM]	GI50 [1] [µM]	GI50 [3] [nM]	GI50 [5] [µM]	GI50 [6] [nM]	GI50 [8] [nM]	GI50 [7] [µM]	GI50 [2] [nM]	GI50 [9] [nM]	GI50 [4] [nM]	GI50 [10] [µM]
Cc1ccc2c(c1)-c1c3c(nn1-c1ccccc1)-c1ccccc1SC3O2 (configuration not stated)	> 100 µM	> 100	> 100 µM	> 100 µM	> 100 µM	> 100	> 100 µM													
COc1cc2c[n+](C)c3c4cc(OC)c(OC(C)C)cc4ccc3c2cc1OC	> 100 µM	> 100	> 100 µM	> 100 µM	> 100 µM	> 100	> 100 µM	> 100 µM												
C[C@H](OCc1ccccc1)C(=O)N1CCS(=O)(=O)N2CCC[C@@H]2C1=O	> 100 µM	> 100	> 100 µM	> 100 µM	> 100 µM	> 100	> 100 µM	> 100 µM												
Cc1ccccc1C1OC(=O)c2ccc3ccccc3c21 (configuration not stated)	21.7 µM	8.37	6.95 µM	14.8 µM	31.3 µM	5.43	> 31.6 µM	12.2 µM												
COC(C(=O)NN)c1ccccc1 (configuration not stated)	> 100 µM	> 100	> 100 µM	> 100 µM	> 100 µM	> 100	> 100 µM	> 100 µM	> 100											
C/C(O)=C(/C=N/C(=S)Nc1ccc(S(N)(=O)=O)cc1)C(=O)Nc1ccccc1C	> 100 µM	> 100	> 100 µM	> 100 µM		97.3	> 100 µM	> 100 µM	> 100	> 100										
COc1cc2c(cc1OC)[C@H](C)N1CCc3cc(OC)c(OC)cc3[C@@H]1C2	> 100 µM	> 100		> 100 µM	> 100 µM	> 100	> 100 µM	> 100 µM	> 100	> 100										
C=Cc1cncc(C#N)c1CCc1c(C#N)cncc1C=C	> 100 µM	> 10	> 100 µM	> 10 µM	> 100 µM	> 100	> 100 µM	> 100 µM			> 100	> 10000	> 100	> 100000	> 100000	> 100				
COc1ccc(CCN2CC=Cn3c2nc2ccccc2c3=O)cc1	> 100 µM	> 89.7	> 100 µM	> 60.8 µM		43	> 100 µM	> 85.8 µM	> 100	> 100	0.037	30.9		41.5	101	0.217	55.9	30.8	104	16
COc1cc(OC)c2nc(C)c3c(c2c1)SCC3	> 100 µM	48.9	54.1 µM	44.6 µM		64.4	80.2 µM	43.8 µM	53.1	58										
C=C/C=C/NC(=O)OCc1ccccc1	> 100 µM	> 100	> 100 µM	> 100 µM	> 100 µM	> 100	> 100 µM													
CCCCOC(=O)N1CCN(/[N+]([O-])=N/Oc2ccc([N+](=O)[O-])cc2[N+](=O)[O-])CC1	> 100 µM		40.4 µM	25.4 µM	37.9 µM	5.47	11.8 µM	5.95 µM	30.8		3.38	17600	21.1	2300	2540	3.53		14000	6420	
O=C(Nc1ccc(Br)cc1F)c1cc(I)ccc1O	17.7 µM	7.95	7.54 µM	29.6 µM			> 100 µM	5.48 µM	7.86	6.35	3.07	2550			1900	3.17	2130	2310	2400	1.92
CN(C(=O)C12C3C4C1C1C2C3C41C(N)=O)C(C)(C)C (configuration not stated)	> 100 µM	> 100		> 100 µM	> 100 µM		> 100 µM	> 100 µM												
CC(=O)Nc1ccc(S(=O)(=O)N/N=C/CN2C(=O)c3ccccc3C2=O)cc1	> 100 µM		> 100 µM	> 100 µM	> 100 µM	> 100		> 100 µM												
C[C@@]12CCC(=O)c3coc(c31)C(=O)c1cc3c(cc12)C(=O)C=CC3=O	> 1 µM and 35.7 µM	> 100	> 1 µM and 37.1 µM	> 1 µM and 38 µM	> 1 µM and 43.9 µM	> 100	> 1 µM and 36 µM	> 1 µM and 86 µM			> 1	> 1000	> 1	> 1000	> 1000	> 1	> 1000		> 1000	
CC(CN(C)C)/C(=N\Nc1ccccc1)c1ccccc1 (configuration not stated)	> 100 µM	84.1	65.4 µM	16.6 µM	66.8 µM	67.6	5.45 µM													
CCOC(=O)/C(C1=NCCN1)=C(\O)c1ccccc1	> 100 µM		> 100 µM	> 100 µM		> 100	> 100 µM	> 100 µM												
c1cncc(C2N3CCCCC3[C@@H]3c4[nH]c5ccccc5c4CCN23)c1 (some centres not stated)	> 100 µM	> 100	> 100 µM	> 100 µM	> 100 µM	> 100	> 100 µM													
CCCCCCCCCCCCCCCC(=O)OCC1OC(n2cc(F)c(=O)[nH]c2=O)C(N)C(O)C1O (configuration not stated)	30.4 µM	45.7		35.2 µM	38.6 µM	51.3	58.8 µM	35.9 µM												
CC1=NN(C(=O)c2ccccc2O)C(=O)/C1=C/c1ccc(O)cc1	> 100 µM	> 100		> 100 µM	> 100 µM	> 100	> 100 µM	41.2 µM	> 100	> 100										
